Experimental data reported in patent publication US20240002391A1, “4-ALKOXYPYRROLO[2,1-F][1,2,4]TRIAZINES AND PREPARATION AND USES THEREOF” (BioSplice Therapeutics, Inc., priority 2022, published 2024).

Each molecule was assayed against recombinant DYRK1A kinase (Homo sapiens (Human), UniProt Q13627) (assay: DYRK1A kinase assay (Ser/Thr 18 peptide Z-lyte FRET)). Conditions: DYRK1A kinase activity, Z-lyte Ser/Thr 18 peptide, 15 μM ATP; method text calls the value IC50; read-out: EC50 (the source's name).
Format: biochemical
Summary of the method: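 Kinase 0.25 μg/mL + ATP 15 μM + Ser/Thr 18 peptide 4 μM, 1 h RT with cpd (10 μM top, 1:3, 11 pts, n=2). Dev. reagent A 1 h RT. Ex 400, Em 455/520 ratio → % phos. → IC50, nonlinear fit.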

**Q.** For `COc1nc(NC2CCC3(CC2)COC3)nn2ccc(-c3ccc4ncnn4c3)c12` [Compound 198, 5-([1,2,4]Triazolo[1,5-a]pyridin-6-yl)-4-methoxy-N-(2-oxaspiro[3.5]nonan-7-yl)pyrrolo[2,1-f][1,2,4]triazin-2-amine], which IC50 is on record?
**A.** 4.5 nM

**Q.** With `COc1nc(N[C@H]2C[C@](C)(O)C2)nn2ccc(-c3ccc4nc(C)n(CCO)c4c3)c12` [Compound 170, trans-3-((5-(1-(2-Hydroxyethyl)-2-methyl-1H-benzo[d]imidazol-6-yl)-4-methoxypyrrolo[2,1-f][1,2,4]triazin-2-yl)amino)-1-methylcyclobutan-1-ol] as the molecule, how does the IC50 read?
**A.** 8.6 nM

**Q.** `COc1nc(NC2CC3(CCN(C(C)=O)CC3)C2)nn2ccc(-c3ccc4nnn(C)c4c3)c12` [Compound 227, 1-(2-((4-Methoxy-5-(1-methyl-1H-benzo[d][1,2,3]triazol-6-yl)pyrrolo[2,1-f][1,2,4]triazin-2-yl)amino)-7-azaspiro[3.5]nonan-7-yl)ethan-1-one] was tested. Which IC50 did it give?
**A.** 3.6 nM

**Q.** With `COc1nc(NC2CCC3(CC2)CN(C(=O)OC(C)(C)C)C3)nn2ccc(-c3ccc4ncnn4c3)c12` [Compound 197, tert-Butyl 7-((5-([1,2,4]triazolo[1,5-a]pyridin-6-yl)-4-methoxypyrrolo[2,1-f][1,2,4]triazin-2-yl)amino)-2-azaspiro[3.5]nonane-2-carboxylate] as the molecule, how does the IC50 read?
**A.** 29.6 nM

**Q.** For `COc1nc(NC2CC3CCC(C2)O3)nn2ccc(-c3cnc4nccn4c3)c12` (stereo not drawn) [Compound 1150, N-(8-Oxabicyclo[3.2.1]octan-3-yl)-5-(imidazo[1,2-a]pyrimidin-6-yl)-4-methoxypyrrolo[2,1-f][1,2,4]triazin-2-amine], which IC50 is on record?
**A.** 4.4 nM

**Q.** How did the IC50 turn out when `COc1nc(N[C@H]2CCN(C3COC3)C[C@H]2F)nn2ccc(-c3cnc4nccn4c3)c12` [Compound 270, N-((3R,4S)-3-Fluoro-1-(oxetan-3-yl)piperidin-4-yl)-5-(imidazo[1,2-a]pyrimidin-6-yl)-4-methoxypyrrolo[2,1-f][1,2,4]triazin-2-amine] was run?
**A.** 5.1 nM

**Q.** How did the IC50 turn out when `CCO[C@H]1C[C@@H](Nc2nc(OC)c3c(-c4ccc5ncnn5c4)ccn3n2)C1` [Compound 555, 5-([1,2,4]Triazolo[1,5-a]pyridin-6-yl)-N-(cis-3-ethoxycyclobutyl)-4-methoxypyrrolo[2,1-f][1,2,4]triazin-2-amine] was run?
**A.** 5 nM

**Q.** `COc1nc(N[C@H]2C[C@](C)(N)C2)nn2ccc(-c3ccn4nccc4c3)c12` [Compound 94, trans-N1-(4-Methoxy-5-(pyrazolo[1,5-a]pyridin-5-yl)pyrrolo[2,1-f][1,2,4]triazin-2-yl)-3-methylcyclobutane-1,3-diamine] was tested. Which IC50 did it give?
**A.** 4.1 nM

**Q.** How did the IC50 turn out when `CCO[C@H]1C[C@@H](Nc2nc(OC)c3c(-c4ccc5nnn(C)c5c4)ccn3n2)C1` [Compound 624, N-(cis-3-Ethoxycyclobutyl)-4-methoxy-5-(1-methyl-1H-benzo[d][1,2,3]triazol-6-yl)pyrrolo[2,1-f][1,2,4]triazin-2-amine] was run?
**A.** 8.6 nM

**Q.** For `COc1nc(N[C@H]2CCN(C)C[C@H]2F)nn2ccc(-c3cnc4nccn4c3)c12` [Compound 268, N-((3R,4S)-3-Fluoro-1-methylpiperidin-4-yl)-5-(imidazo[1,2-a]pyrimidin-6-yl)-4-methoxypyrrolo[2,1-f][1,2,4]triazin-2-amine], which IC50 is on record?
**A.** 5 nM

**Q.** How did the IC50 turn out when `COc1nc(N[C@H]2C[C@@](C)(N)C2)nn2ccc(-c3ccc4nnn(C)c4c3)c12` [Compound 202, cis-N^1-(4-Methoxy-5-(1-methyl-1H-benzo[d][1,2,3]triazol-6-yl)pyrrolo[2,1-f][1,2,4]triazin-2-yl)-3-methylcyclobutane-1,3-diamine] was run?
**A.** 10.9 nM

**Q.** How did the IC50 turn out when `COc1nc(N[C@H]2C[C@](C)(C(=O)N(C)C)C2)nn2ccc(-c3ccc4ncccc4c3)c12` [Compound 290, trans-3-((4-Methoxy-5-(quinolin-6-yl)pyrrolo[2,1-f][1,2,4]triazin-2-yl)amino)-N,N,1-trimethylcyclobutane-1-carboxamide] was run?
**A.** 1.8 nM

**Q.** How did the IC50 turn out when `COc1nc(N[C@H]2C[C@](C)(NC(C)=O)C2)nn2ccc(-c3ccc4nccnc4c3)c12` [Compound 334, N-(trans-3-((4-Methoxy-5-(quinoxalin-6-yl)pyrrolo[2,1-f][1,2,4]triazin-2-yl)amino)-1-methylcyclobutyl)acetamide] was run?
**A.** 0.9 nM

**Q.** Which IC50 does the source give for `COc1nc(N[C@H]2CCN(C(C)=O)C[C@H]2F)nn2ccc(-c3ccc4nnn(CCF)c4c3)c12` [Compound 664, 1-((3R,4S)-3-Fluoro-4-((5-(1-(2-fluoroethyl)-1H-benzo[d][1,2,3]triazol-6-yl)-4-methoxypyrrolo[2,1-f][1,2,4]triazin-2-yl)amino)piperidin-1-yl)ethan-1-one] here?
**A.** 1.6 nM

**Q.** `COc1nc(N[C@@H]2CCN(C3COC3)C[C@@H]2F)nn2ccc(-c3ccc4nccnc4c3)c12` [Compound 373, N-((3S,4R)-3-Fluoro-1-(oxetan-3-yl)piperidin-4-yl)-4-methoxy-5-(quinoxalin-6-yl)pyrrolo[2,1-f][1,2,4]triazin-2-amine] was tested. Which IC50 did it give?
**A.** 2.9 nM

**Q.** `COc1nc(N[C@@H]2CCN(C3COC3)C[C@H]2F)nn2ccc(-c3cc(F)c4nc(C)n(CC(F)F)c4c3)c12` [Compound 159, 5-(1-(2,2-Difluoroethyl)-4-fluoro-2-methyl-1H-benzo[d]imidazol-6-yl)-N-((3R,4R)-3-fluoro-1-(oxetan-3-yl)piperidin-4-yl)-4-methoxypyrrolo[2,1-f][1,2,4]triazin-2-amine] was tested. Which IC50 did it give?
**A.** 2.9 nM

**Q.** `COc1nc(N[C@H]2CN(C3COC3)C[C@H]2F)nn2ccc(-c3ccc4nccnc4c3)c12` [Compound 356, N-((3S,4R)-4-Fluoro-1-(oxetan-3-yl)pyrrolidin-3-yl)-4-methoxy-5-(quinoxalin-6-yl)pyrrolo[2,1-f][1,2,4]triazin-2-amine] was tested. Which IC50 did it give?
**A.** 8.8 nM

**Q.** With `COc1nc(NC23CC(NC(C)=O)(C2)C3)nn2ccc(-c3ccc4nccnc4c3)c12` [Compound 382, N-(3-((4-Methoxy-5-(quinoxalin-6-yl)pyrrolo[2,1-f][1,2,4]triazin-2-yl)amino)bicyclo[1.1.1]pentan-1-yl)acetamide] as the molecule, how does the IC50 read?
**A.** 1.8 nM

**Q.** With `COc1nc(NC2CCC3(CC2)CN(C(C)=O)C3)nn2ccc(-c3ccc4nccnc4c3)c12` [Compound 389, 1-(7-((4-Methoxy-5-(quinoxalin-6-yl)pyrrolo[2,1-f][1,2,4]triazin-2-yl)amino)-2-azaspiro[3.5]nonan-2-yl)ethan-1-one] as the molecule, how does the IC50 read?
**A.** 1.3 nM

**Q.** `COc1nc(N[C@H]2C[C@@](C)(NC(C)=O)C2)nn2ccc(-c3ccc4nnn(CC(F)F)c4c3)c12` [Compound 702, N-((1s,3s)-3-((5-(1-(2,2-Difluoroethyl)-1H-benzo[d][1,2,3]triazol-6-yl)-4-methoxypyrrolo[2,1-f][1,2,4]triazin-2-yl)amino)-1-methylcyclobutyl)acetamide] was tested. Which IC50 did it give?
**A.** 1.2 nM

**Q.** With `CNC(=O)[C@]1(C)C[C@H](Nc2nc(OC)c3c(-c4ccc5nnn(C)c5c4)ccn3n2)C1` [Compound 209, cis-3-((4-Methoxy-5-(1-methyl-1H-benzo[d][1,2,3]triazol-6-yl)pyrrolo[2,1-f][1,2,4]triazin-2-yl)amino)-N,1-dimethylcyclobutane-1-carboxamide] as the molecule, how does the IC50 read?
**A.** 8.8 nM

**Q.** With `COc1nc(N[C@@H]2CCN(C3COC3)CC2(F)F)nn2ccc(-c3cc(F)c4nc(C)n(CC(F)F)c4c3)c12` [Compound 164, (R)—N-(3,3-Difluoro-1-(oxetan-3-yl)piperidin-4-yl)-5-(1-(2,2-difluoroethyl)-4-fluoro-2-methyl-1H-benzo[d]imidazol-6-yl)-4-methoxypyrrolo[2,1-f][1,2,4]triazin-2-amine] as the molecule, how does the IC50 read?
**A.** 2.1 nM

**Q.** With `COc1nc(NC2CCC3(CC2)COC3)nn2ccc(-c3ccc4nnn(C)c4c3)c12` [Compound 230, 4-Methoxy-5-(1-methyl-1H-benzo[d][1,2,3]triazol-6-yl)-N-(2-oxaspiro[3.5]nonan-7-yl)pyrrolo[2,1-f][1,2,4]triazin-2-amine] as the molecule, how does the IC50 read?
**A.** 4.2 nM

**Q.** How did the IC50 turn out when `[2H]C([2H])([2H])Oc1nc(N[C@H]2C[C@](C)(O)C2)nn2ccc(-c3ccc4nccnc4c3)c12` [Compound 331, trans-3-((4-(Methoxy-d3)-5-(quinoxalin-6-yl)pyrrolo[2,1-f][1,2,4]triazin-2-yl)amino)-1-methylcyclobutan-1-ol] was run?
**A.** 1.2 nM

**Q.** Which IC50 does the source give for `COc1nc(N[C@@H]2CCN(C(C)=O)CC2(F)F)nn2ccc(-c3ccc4ncccc4c3)c12` [Compound 1048, (R)-1-(3,3-Difluoro-4-((4-methoxy-5-(quinolin-6-yl)pyrrolo[2,1-f][1,2,4]triazin-2-yl)amino)piperidin-1-yl)ethan-1-one] here?
**A.** 1.3 nM

**Q.** Which IC50 does the source give for `COc1nc(N[C@H]2CC[C@](C)(O)CC2)nn2ccc(-c3ccc4ncc(C#N)n4c3)c12` [Compound 103, 6-(2-((trans-4-hydroxy-4-methylcyclohexyl)amino)-4-methoxypyrrolo[2,1-f][1,2,4]triazin-5-yl)imidazo[1,2-a]pyridine-3-carbonitrile] here?
**A.** 5.9 nM

**Q.** How did the IC50 turn out when `COc1nc(N[C@@H]2CN(C)C[C@@H]2F)nn2ccc(-c3ccc4nccnc4c3)c12` [Compound 350, N-((3R,4S)-4-Fluoro-1-methylpyrrolidin-3-yl)-4-methoxy-5-(quinoxalin-6-yl)pyrrolo[2,1-f][1,2,4]triazin-2-amine] was run?
**A.** 1.4 nM

**Q.** `COc1nc(N[C@@H]2CCN(C)C[C@@H]2F)nn2ccc(-c3ccn4nccc4c3)c12` [Compound 31, N-((3S,4R)-3-fluoro-1-methylpiperidin-4-yl)-4-methoxy-5-(pyrazolo[1,5-a]pyridin-5-yl)pyrrolo[2,1-f][1,2,4]triazin-2-amine] was tested. Which IC50 did it give?
**A.** 7.7 nM

**Q.** Which IC50 does the source give for `COc1nc(N[C@H](C)c2ccccn2)nn2ccc(-c3ccn4nccc4c3)c12` [Compound 93, (R)-4-Methoxy-5-(pyrazolo[1,5-a]pyridin-5-yl)-N-(1-(pyridin-2-yl)ethyl)pyrrolo[2,1-f][1,2,4]triazin-2-amine] here?
**A.** 194 nM

**Q.** Which IC50 does the source give for `CCC(=O)N[C@]1(C)C[C@H](Nc2nc(OC)c3c(-c4ccc5nccnc5c4)ccn3n2)C1` [Compound 335, N-(cis-3-((4-Methoxy-5-(quinoxalin-6-yl)pyrrolo[2,1-f][1,2,4]triazin-2-yl)amino)-1-methylcyclobutyl)propionamide] here?
**A.** 2 nM
